“And” between values parts separate entries of the source, which are not always exact repeats. Equal values may be shown once.
What was measured:
PSMA = target: T1, PSMA (Homo sapiens, UniProt Q04609); assay: Competitive binding assay (IC50) on LNCaP cells with ([125I]I-BA)KuE as radioligand; settings: cold reference ligands, ([125I]I-BA)KuE 0.2 nM, 1 h, 4°C, mean ± SD, n = 3, read-out: PSMA affinity (IC50)
T1 construct: host or cells: LNCaP cells
Protocol: Competitive binding experiments (IC50) were carried out using PSMA-expressing LNCaP cells and ([^125I]I-BA)KuE as standard radioligand. […] Data represent means ± SD (n = 3).
Determination of the PSMA binding affinities (IC50)
The culture medium was removed and the cells were washed with 500 µL of HBSS (Hank´s balanced salt solution, Biochrom Berlin, Germany, containing 1% bovine serum albumin (BSA)). Before the experiment the cells were left to equilibrate in 200 µL HBSS (1% BSA) for 15 min on ice. Afterwards, 25 µL/well of solutions containing the respective unlabeled inhibitor in increasing concentrations (10- 10 – 10^-4 M in HBSS (1% BSA)) or either HBSS (1% BSA) as control were added, followed by the addition of 25 µL of ([125I]I-BA)KuE as a competitor. The final concentration of the radioiodinated inhibitor was 0.2 nM in all assays. For each concentration the experiments were performed in triplicates. Incubation of the cells was carried out for 60 min on ice and terminated by removal of the assay medium. The cells were thoroughly rinsed with 250 µL of HBSS and the washing medium was combined with the supernatant of the previous step, representing the amount of free radioligand.
Then, the cells were lysed using 250 µL of 1 N NaOH, and the lysat was transferred to vials and combined with 250 µL of HBSS, which was used for an additional washing step (bound activity). The Quantification of the amount of free and bound radioactivity was performed in a γ-counter.
performed using LNCaP cells and ([125I]I-BA)KuE (0.2 nM) as radioligand (1 h, 4°C)

[1] = tested on: PSMA-expressing LNCaP cells; assay: Internalization of the 18F-labeled ligands, normalized to ([125I]I-BA)KuE; type: cell-based, human; settings: for Specific Internalization (1h; % of reference): LNCaP cells, 37°C, corrected for non-specific internalization (100 μM PMPA), reference ([125I]I-BA)KuE, mean ± SD, n = 3; for fold higher internalization rate than the reference ligands: versus 18F-DCFPyl and 18F-PSMA-1007, PSMA-expressing cells
Protocol: PSMA overexpressing LNCaP cells (CLS: 300265) were cultured in DMEM/Nutrition Mix F-12 with Glutamax-I (1:1) (Invitrogen, Life Technologies, Darmstadt, Germany) supplemented with 10% FCS and were maintained at 37 °C in a 5% CO2/humidified air atmosphere. For IC50 determination, approximately 150,000 cells/well were seeded on 24-well plates 1 day prior to the experiment. For internalization studies, 125,000 cells/well were seeded in PLL-coated 24-well plates. For cell counting, a Countesse automated cell counter (Invitrogen, Carlsbad, USA) was used.
PSMA affinity and internalization kinetics of the ^18F-labeled compounds were determined according to a previously published protocol. A detailed description is provided online in the supporting information.
Competitive binding experiments (IC50) were carried out using PSMA-expressing LNCaP cells and ([^125I]I-BA)KuE as standard radioligand. Internalization kinetics of the ^18F-labeled derivatives were also performed using PSMA-expressing LNCaP cells and ([^125I]I-BA)KuE (0.2 nM) as an internal reference. Data were corrected for non-specific internalization in the presence of 100 μM 2-phosphonomethyl pentanedioic acid (PMPA) and normalized to the specific internalization observed for the radioiodinated reference compound assayed in a parallel experiment. Data represent means ± SD (n = 3).
Internalization studies of the 18F-labeled EuE-based inhibitors, 18F-DCFPyl and 18F-PSMA-1007 were performed according to a previously published protocol. Briefly, after washing the cells with 0.5 mL DMEM-F12 (5% BSA), the cells were preconditioned for a minimum of 15 min with 200 µL DMEM-F12 (5% BSA) at 37°C. Then, 25 µL (per well) of either assay medium (total internalization) or of a 100 µM 2-PMPA solution (non-specific internalization) were added, followed by addition of 25 µL of assay medium containing the respective 18F-labeled PSMA inhibitor or ([125I]I-BA)KuE (0.2 nM). The internalization kinetics were determined by cell incubation at 37°C for 5, 15, 30, and 60 min, respectively. All experiments were carried out in triplicate for each time point (control and blocking).
Incubation was terminated by placing the plate on ice and by removal of the incubation medium. The cells were subsequently rinsed with 250 µL DMEM-F12 (5% BSA) and combined with the supernatant of the previous step (amount of free radioligand). To remove receptor surface-bound radioactivity, the cells were incubated with 250 µL of ice cold PMPA in PBS (10 µM) for 10 min. After removal of the supernatant, the cells were thoroughly rinsed with another 250 µL of ice-cold PBS and both fractions were combined (amount of receptor-bound radioactivity). By incubation of the cells with 250 µL 1N NaOH (5 min), the internalized activity was released, the suspension transferred to vials, and combined with 250 µL of 1N NaOH used for subsequent rinsing of the wells. Quantification of the amount of free, PMPA-releasable, and internalized activity was performed in a γ-counter. For analysis of the internalization, data for both the 18F-labeled compound of interest and for the reference ([125I]I-BA)KuE in the same experiment were first corrected by the amount of non-specific internalization (adding of 100 µM PMPA), respectively, and then each was normalized to the amount of internalized ligand in the absence of unlabeled competitor (100%). To eliminate the influence of cell count and cell viability on the absolute internalization values, data (60 min) are expressed as the ratio of the internalization of the compound of interest to the internalization (60 min) found for ([125I]I-BA)KuE in the same experiment (Fig 2, Fig S3). Data represent means ± SD (n=3).
18F-PSMA-1007 and reference ([125I]I-BA)KuE into LNCaP cells (37°C) (mean ± SD [n = 3]) *Specific internalization of the reference compound ([125I]I-BA)KuE assayed in a parallel experiment and used for data […]
The results of the metabolite analyses of the 18F-labeled EuE-based inhibitors, as well as of 18F-PSMA- […]

[2] = target: T2, human serum albumin (HSA) (Homo sapiens, UniProt P02768); assay: Plasma protein binding on Chiralpak HSA column; type: in vitro ADME
T2 construct: purchased Chiralpak (manufacturer not given)
T2 sequence (P02768 25-609): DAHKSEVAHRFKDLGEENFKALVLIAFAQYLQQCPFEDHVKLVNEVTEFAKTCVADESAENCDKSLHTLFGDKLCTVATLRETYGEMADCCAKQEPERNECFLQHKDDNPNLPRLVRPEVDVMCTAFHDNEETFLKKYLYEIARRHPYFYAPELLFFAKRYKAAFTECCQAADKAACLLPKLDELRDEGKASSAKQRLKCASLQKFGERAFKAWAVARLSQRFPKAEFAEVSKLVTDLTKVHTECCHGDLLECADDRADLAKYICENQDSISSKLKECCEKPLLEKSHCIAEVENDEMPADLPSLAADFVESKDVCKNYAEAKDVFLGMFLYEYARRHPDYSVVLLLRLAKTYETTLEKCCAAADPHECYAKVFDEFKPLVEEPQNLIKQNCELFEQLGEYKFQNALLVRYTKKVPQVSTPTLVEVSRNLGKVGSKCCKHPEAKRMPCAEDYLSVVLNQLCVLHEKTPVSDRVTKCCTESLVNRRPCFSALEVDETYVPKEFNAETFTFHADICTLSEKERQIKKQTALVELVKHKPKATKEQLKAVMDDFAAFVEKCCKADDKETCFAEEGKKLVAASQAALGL
Protocol: Plasma protein binding of the tracers was determined using an analytical Chiralpak human serum albumin (HSA) column (50 × 3 mm, 5 μm) according to a previously published protocol with minor changes.

LNCaP-tumor-xenografts = assay: Biodistribution in LNCaP-tumor-bearing SCID mice; type: in vivo; settings: 1 h p.i., mean ± SD, n = 4
Protocol: To induce LNCaP tumor growth, male CB-17 SCID mice (6–8 weeks, Charles River Laboratories, Sulzfeld, Germany) were inoculated subcutaneously onto the right shoulder with LNCaP cells (approximately 1 × 10^7 cells/200 μL DMEM/Nutrition Mix F-12 with Glutamax-I (1:1) medium and Matrigel (BD Biosciences, Germany) (1:1)). After 3–5 weeks, tumor size reached 4–8 mm in diameter, and the animals were used for in vivo studies.
About 0.8–1 MBq of the ^18F-labeled tracer were injected into the tail vein of the mice (n = 8) under isoflurane anesthesia. Animals were sacrificed at 1 and 2 h p.i.; the organs of interest were dissected, and the activity in the weighed tissues samples was quantified using a γ-counter.
The high plasma protein binding and therefore delayed blood pool clearance of ^18F-PSMA-1007 leads to low tumor-to-blood and tumor-to-spleen ratios, especially 2 h p.i. (Fig. 5; Additional file 1: Figure S5).
Data are given in % IA/g are means ± SD (n = 4 animals per group and time point)

mCRPC patient = assay: PET/MR imaging of a mCRPC patient (compassionate use); type: in vivo, human; settings: PET/MR 62 min after injection of 158 MBq
Protocol: Based on the promising preclinical results obtained for EuE-k-^18F-FBOA (1) a mCRPC patient (PSA 392 ng/ml) was imaged under compassionate use. The agent was applied in compliance with The German Medicinal Products Act, Arzneimittelgesetz (AMG) §13 2b, and in accordance with the responsible regulatory body (Government of Oberbayern). The patient underwent PET/MR imaging 62 min after injection of 158 MBq of EuE-k-^18F-FBOA (Fig. 6).
Images show the typical biodistribution of PSMA ligands with minimal blood pool retention.

[3] = CD-1, mouse, in vivo, 1 h
Protocol: (§14) Approximately 60–70 MBq of the ^18F-labeled inhibitors were injected into the tail vein of severe combined immunodeficiency (SCID) mice. The animals were sacrificed 1 h p.i., blood and urine were collected, and kidneys were dissected and after freezing with liquid nitrogen, homogenized with a ball mill and extracted with 1 mL PBS containing 200 nmol PMPA. After centrifugation (15,000g) and ultrafiltration, the extracts were analyzed by reversed phase high-performance liquid chromatography (RP-HPLC). Blood samples were centrifuged to separate the plasma from the blood cells. Additionally, plasma proteins were removed by precipitation with acetonitrile (10 min, on ice), subsequent centrifugation and ultrafiltration. The blood extracts and the urine samples were analyzed using RP-HPLC. For RP-HPLC, a Nucleosil 100 C18 (5 μm, 125 × 4.0) column and different HPLC-systems were used (EuE-based inhibitors: flow rate: 2 mL/min; Gradient: 0–30% B in 20 min; HPLC-System A (see Additional file 1); ^18F-PSMA-1007: flow rate: 1.5 mL/min; Gradient: 5–55% B in 10 min; HPLC-System B (see Additional file 1); solvent A: 0.1% trifluoroacetic acid (TFA) in water, solvent B: 0.1% TFA in MeCN).

[4] = Metabolite analysis in mice, RP-HPLC of blood, urine and kidney extracts; settings: 1 h p.i.
Protocol: as §14

T1 sequence (Q04609 whole entry): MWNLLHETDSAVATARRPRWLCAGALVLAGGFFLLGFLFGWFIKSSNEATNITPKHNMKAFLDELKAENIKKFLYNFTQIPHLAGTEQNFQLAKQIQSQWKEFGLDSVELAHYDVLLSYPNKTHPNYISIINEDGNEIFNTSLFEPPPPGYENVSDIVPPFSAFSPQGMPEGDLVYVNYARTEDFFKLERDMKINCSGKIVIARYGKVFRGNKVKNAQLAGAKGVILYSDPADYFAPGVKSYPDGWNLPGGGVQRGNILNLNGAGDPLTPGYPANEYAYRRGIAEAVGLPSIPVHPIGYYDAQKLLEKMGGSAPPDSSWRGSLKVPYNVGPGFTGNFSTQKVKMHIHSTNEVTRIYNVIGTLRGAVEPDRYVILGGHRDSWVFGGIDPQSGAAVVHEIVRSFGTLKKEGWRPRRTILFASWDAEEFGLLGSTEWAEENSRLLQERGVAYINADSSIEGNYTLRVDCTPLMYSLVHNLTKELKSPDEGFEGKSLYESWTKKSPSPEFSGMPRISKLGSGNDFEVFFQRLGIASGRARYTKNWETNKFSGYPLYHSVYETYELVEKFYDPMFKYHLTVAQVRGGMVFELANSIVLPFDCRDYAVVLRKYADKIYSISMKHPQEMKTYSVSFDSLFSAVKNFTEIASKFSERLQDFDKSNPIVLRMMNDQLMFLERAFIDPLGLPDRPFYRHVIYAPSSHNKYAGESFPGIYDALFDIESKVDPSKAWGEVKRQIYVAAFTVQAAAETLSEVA

Row | SMILES | IC50 (PSMA) [nM] | Specific Internalization (1h; % of reference) [1] | fold higher internalization rate than the reference ligands [1] [fold] | Human serum albumin binding (plasma protein binding) [2] | tumor accumulation (LNCaP-tumor-xenografts) [% IA/g] | uptake in bone and lymph node metastases, mean SUVmax (mCRPC patient) | uptake in bone and lymph node metastases, mean SUVmean (mCRPC patient) | uptake in the kidneys (SUVmean) (mCRPC patient) | uptake in the liver (SUVmean) (mCRPC patient) | uptake in the salivary glands (SUVmean) (mCRPC patient) | uptake in the spleen (SUVmean) (mCRPC patient) | intact tracer in blood, urine and kidneys [3] [%] | enhanced internalization into LNCaP cells compared to EuE-k-18F-FBOA ([1]; versus EuE-k-18F-FBOA) | more hydrophilic metabolite, share of total activity in the kidneys ([4]; kidneys) [%] | more hydrophilic metabolite, share of total activity in the urine ([4]; urine) [%]
1 | O=C(O)CCC(NC(=O)NC(CCC(=O)NC(CCCCNC(=O)CON=Cc1ccc([18F])cc1)C(=O)O)C(=O)O)C(=O)O (stereo not shown) [EuE-k-^18F-FBOA] | 4.2 ± 0.4 | 165 ± 4 % of reference | 1.4 | 13.4% | 12.7 ± 2.0 | 21.6 (range 15.4–28.2) | 14.7 (range 9.2–19) | 14.0 | 6.4 | 5.8 | 6.1 | 100 | – | – | –
2 | O=C(O)CCC(NC(=O)NC(CCC(=O)NC(CCCCNC(=O)CCNC(=O)c1ccc([18F])nc1)C(=O)O)C(=O)O)C(=O)O (stereo not drawn) [EuE-k-β-a-^18F-FPyl] | 1.1 ± 0.2 | 323 ± 2 % of reference | 2.7 | 12.0% | 13.0 ± 1.0 | – | – | – | – | – | – | 100 | twofold | – | –
3 | O=C(O)CCC(NC(=O)NC(CCCCNC(=O)c1ccc([18F])nc1)C(=O)O)C(=O)O (stereo not shown) [^18F-DCFPyl, 2-(3-{1-Carboxy-5-[(6-[18F]fluoro-pyridine-3-carbonyl)-amino]-pentyl}-ureido)-pen tanedioic acid, reference compound] | – | 118 ± 4 % of reference | – | 14.3% | 7.3 ± 1.0 | – | – | – | – | – | – | – | – | – | –
4 | O=C(O)CC[C@H](NC(=O)N[C@@H](CCCCNC(=O)[C@H](Cc1ccc2ccccc2c1)NC(=O)c1ccc(CNC(=O)[C@H](CCC(=O)O)NC(=O)[C@H](CCC(=O)O)NC(=O)c2ccc(F)nc2)cc1)C(=O)O)C(=O)O [^18F-PSMA-1007] | 4.2 ± 0.5 | – | – | – | – | – | – | – | – | – | – | – | – | – | –
5 | O=C(O)CC[C@H](NC(=O)N[C@@H](CCCCNC(=O)[C@H](Cc1ccc2ccccc2c1)NC(=O)c1ccc(CNC(=O)[C@H](CCC(=O)O)NC(=O)[C@H](CCC(=O)O)NC(=O)c2ccc([18F])nc2)cc1)C(=O)O)C(=O)O [^18F-PSMA-1007] | – | 118 ± 5 % of reference | – | 98% and 97.8% | 7.1 ± 1.5 | – | – | – | – | – | – | – | – | 4 | 2
